≈ marks a conversion by molar mass, not a printed value. Read-outs that look alike come from different tables or passages of the source.
Key:
[1] = test system: Staphylococcus aureus 209P IAM-1011; experiment: in vitro MIC, agar streak method; format: cell-based; conditions: Heart infusion agar
Sarcina lutea IAM1009 = experiment: in vitro MIC, agar streak method; format: cell-based; conditions: Heart infusion agar
[2] = test system: Staphylococcus epidermidis IFO-12993; experiment: in vitro MIC, agar streak method; format: cell-based; conditions: Heart infusion agar
Text: (§1) | ^(1) Heart infusion agar

[3] = test system: Micrococcus flavus ATCC-10240; experiment: in vitro MIC, agar streak method; format: cell-based
Text: as §1

[4] = test system: Escherichia coli NIHJ IFO-12734; experiment: in vitro MIC, agar streak method; format: cell-based
Text: as §1

[5] = test system: Bacillus subtilis IAM-1027; experiment: in vitro MIC, agar streak method; format: cell-based
Text: as §1

Bacillus cereus Rol79B = experiment: in vitro MIC, agar streak method; format: cell-based; conditions: Heart infusion agar
Text: as §1

[6] = test system: Escherichia coli K-12 IAM-1264; experiment: in vitro MIC, agar streak method; format: cell-based
Text: as §1

[7] = test system: Candida albicans ATCC-10231; experiment: in vitro MIC, agar streak method; format: cell-based
Text: (§2) | ^(2) Sabouraud dextrose agar

[8] = test system: Candida tropicalis ATCC-13803; experiment: in vitro MIC, agar streak method; format: cell-based
Text: as §2

in vivo = conditions: mouse, ip, mice, single i.p. injection, judged 72 hours after, read-out: acute intraperitoneal LD50
Protocol: The acute intraperitoneal LD50 in mice judged 72 hours after a single injection of the antibiotics is about 90 mg/kg for auramycin C, auramycin D, sulfurmycin C and sulfurmycin D, 40~80 mg/kg for auramycin G and sulfurmycin G and 20~40 mg/kg for auramycin E and sulfurmycin E.

P388 leukaemia = experiment: Antitumor effect against P388 leukaemia in CDF1 mice; format: in vivo; conditions: Mus musculus, read-out: Mean survival (T/C, %); for response vs control in vivo at 3.75 mg/kg: 3.75 mg/kg/day i.p.; for response vs control in vivo at 7.5 mg/kg: 7.5 mg/kg/day i.p.; for response vs control in vivo at 15 mg/kg: 15.0 mg/kg/day i.p.
Protocol: The anthracycline glycosides provided by the present invention were tested against P388 leukaemia in mice. When CDF1 mice are inoculated with 1×10^6 cells of P388 intraperitoneally and each of the antibiotics is administered intraperitoneally on days 1, 5 and 9, the survival time of the treated mice is prolonged as shown in Table 5 hereinafter.

[9] = test system: Pseudomonas aeruginosa IFO-12689; experiment: in vitro MIC, agar streak method; format: cell-based; conditions: IFO12689, Heart infusion agar
Text: as §1

[10] = test system: Staphylococcus aureus 209P Stf; experiment: in vitro MIC, agar streak method; format: cell-based; conditions: Heart infusion agar
Text: as §1

[11] = test system: Mycobacterium smegmatis IFO-13167; experiment: in vitro MIC, agar streak method; format: cell-based; conditions: Mycolicibacterium smegmatis, IFO13167
Text: as §1

[12] = ip, days 1, 5 and 9, 1×10^6 P388 cells i.p., CDF1 mice
[13] = Micrococcus luteus, IAM1009, Sarcina lutea IAM-1009, read-out: MIC
[14] = ATCC10240, Micrococcus flavus ATCC-10240, Heart infusion agar, read-out: MIC
[15] = IFO12734, Escherichia coli NIHJ IFO-12734, Heart infusion agar, read-out: MIC
[16] = IAM1027, Bacillus subtilis IAM-1027, Heart infusion agar, read-out: MIC
[17] = IAM1264, Escherichia coli K-12 IAM-1264, Heart infusion agar, read-out: MIC
[18] = ATCC10231, Candida albicans ATCC-10231, Sabouraud dextrose agar, read-out: MIC
[19] = ATCC13803, Candida tropicalis ATCC-13803, Sabouraud dextrose agar, read-out: MIC

SMILES | MIC ([1]; read-out: MIC) [µg/mL] | LD50 at 72 h (in vivo) [mg/kg] | response vs control in vivo at 3.75 mg/kg (P388 leukaemia; [12]) [%] | response vs control in vivo at 7.5 mg/kg (P388 leukaemia; [12]) [%] | response vs control in vivo at 15 mg/kg (P388 leukaemia; [12]) [%] | MIC (Sarcina lutea IAM1009; [13]) [µg/mL] | MIC [3, 14] [µg/mL] | MIC [9] [µg/mL] | MIC [4, 15] [µg/mL] | MIC [10] [µg/mL] | MIC [5, 16] [µg/mL] | MIC [6, 17] [µg/mL] | MIC [7, 18] [µg/mL] | MIC [8, 19] [µg/mL] | MIC (Bacillus cereus Rol79B; read-out: MIC) [µg/mL] | other results
COC(=O)C1c2cc3c(c(O)c2C(OC2CC(N(C)C)C(OC4CC(O)C(OC5CCC(O)C(C)O5)C(C)O4)C(C)O2)CC1(C)O)C(=O)c1c(O)cccc1C3=O (stereo not drawn) [Auramycin F] |  |  |  |  |  |  |  |  |  |  |  |  |  |  |  | MIC [1]: 3.12 µg/mL (≈ 3.9 µM); MIC (Sarcina lutea IAM1009; Sarcina lutea IAM-1009): 3.12 µg/mL (≈ 3.9 µM); MIC ([2]; Staphylococcus epidermidis IFO-12993): 3.12 µg/mL (≈ 3.9 µM); MIC ([3]; Micrococcus flavus ATCC-10240, Heart infusion agar): 3.12 µg/mL (≈ 3.9 µM); MIC ([4]; Escherichia coli NIHJ IFO-12734, Heart infusion agar): > 50 µg/mL; MIC ([5]; Bacillus subtilis IAM-1027, Heart infusion agar): 3.12 µg/mL (≈ 3.9 µM); MIC (Bacillus cereus Rol79B): 0.39 µg/mL (≈ 0.488 µM); MIC ([6]; Escherichia coli K-12 IAM-1264, Heart infusion agar): > 50 µg/mL; MIC ([7]; Candida albicans ATCC-10231, Sabouraud dextrose agar): > 50 µg/mL; MIC ([8]; Candida tropicalis ATCC-13803, Sabouraud dextrose agar): > 50 µg/mL
COC(=O)C1c2cc3c(c(O)c2C(OC2CC(N(C)C)C(O)C(C)O2)CC1(C)O)C(=O)c1c(O)cccc1C3=O (stereo not drawn) [Auramycin D] | 12.5 (≈ 22.5 µM) | ~90 | 103 | 149 | 141 | 6.25 (≈ 11.2 µM) | 12.5 (≈ 22.5 µM) | > 50 | > 50 | 12.5 (≈ 22.5 µM) | 12.5 (≈ 22.5 µM) | > 50 | > 50 | > 50 |  | MIC ([11]; Mycobacterium smegmatis IFO-13167, Heart infusion agar, read-out: MIC): 3.13 µg/mL (≈ 5.63 µM)
COC(=O)C1c2cc3c(c(O)c2C(OC2CC(N(C)C)C(OC4CC(O)C(OC5CCC(O)C(C)O5)C(C)O4)C(C)O2)CC1(C)O)C(=O)c1c(O)cccc1C3=O (stereo not drawn) [Auramycin E] |  | 20 to 40 |  |  |  | 3.12 (≈ 3.9 µM) |  |  | > 50 |  | 3.12 (≈ 3.9 µM) | > 50 | > 50 | > 50 | 0.39 (≈ 0.488 µM) | MIC ([1]; Staphylococcus aureus, read-out: MIC): 1.56 µg/mL (≈ 1.95 µM); response vs control in vivo at 1.5 mg/kg (P388 leukaemia; ip, 1.5 mg/kg/day i.p., days 1, 5 and 9, 1×10^6 P388 cells i.p., CDF1 mice): 131%; response vs control in vivo at 3 mg/kg (P388 leukaemia; ip, 3.0 mg/kg/day i.p., days 1, 5 and 9, 1×10^6 P388 cells i.p., CDF1 mice): 139%; response vs control in vivo at 6 mg/kg (P388 leukaemia; ip, 6.0 mg/kg/day i.p., days 1, 5 and 9, 1×10^6 P388 cells i.p., CDF1 mice): 158%; response vs control in vivo at 12 mg/kg (P388 leukaemia; ip, 12.0 mg/kg/day i.p., days 1, 5 and 9, 1×10^6 P388 cells i.p., CDF1 mice): 165%; MIC ([2]; Staphylococcus epidermidis, IFO12993, Staphylococcus epidermidis IFO-12993, read-out: MIC): 3.12 µg/mL (≈ 3.9 µM); MIC ([3]; Micrococcus flavus, ATCC10240, Micrococcus flavus ATCC-10240, Heart infusion agar, read-out: MIC): 3.12 µg/mL (≈ 3.9 µM)
COC(=O)C1c2cc3c(c(O)c2C(OC2CC(N(C)C)C(OC4CC(O)C(O)C(C)O4)C(C)O2)CC1(C)O)C(=O)c1c(O)cccc1C3=O (stereo not drawn) [Auramycin C] | 6.25 (≈ 9.11 µM) | ~90 | 130 | 141 | 128 | 6.25 (≈ 9.11 µM) | 6.25 (≈ 9.11 µM) | > 50 | > 50 | 6.25 (≈ 9.11 µM) | 6.25 (≈ 9.11 µM) | > 50 | > 50 | > 50 |  | response vs control in vivo at 1.88 mg/kg (P388 leukaemia; ip, 1.88 mg/kg/day i.p., days 1, 5 and 9, 1×10^6 P388 cells i.p., CDF1 mice): 135%; MIC [11]: 6.25 µg/mL (≈ 9.11 µM)
COC(=O)C1c2cc3c(c(O)c2C(OC2CC(N(C)C)C(OC4CCC(OC5CCC(O)C(C)O5)C(C)O4)C(C)O2)CC1(O)CC(C)=O)C(=O)c1c(O)cccc1C3=O (stereo not drawn) [Sulfurmycin G] | 6.25 (≈ 7.57 µM) | 40 to 80 |  |  |  | 12.5 (≈ 15.1 µM) |  |  |  |  |  |  |  |  | 0.39 (≈ 0.472 µM) | response vs control in vivo at 1.5 mg/kg (P388 leukaemia; P388, ip): 104%; response vs control in vivo at 3 mg/kg (P388 leukaemia; P388, ip): 112%; response vs control in vivo at 6 mg/kg (P388 leukaemia; P388, ip): 113%; response vs control in vivo at 12 mg/kg (P388 leukaemia; P388, ip): 123%; response vs control in vivo at 24 mg/kg (P388 leukaemia; P388, ip): 144%; MIC ([2]; IFO12993, Staphylococcus epidermidis IFO-12993, read-out: MIC): 12.5 µg/mL (≈ 15.1 µM); MIC ([3]; Micrococcus flavus, ATCC10240): 12.5 µg/mL (≈ 15.1 µM); MIC ([4]; Escherichia coli, IFO12734): > 50 µg/mL; MIC ([5]; Bacillus subtilis, IAM1027): 6.25 µg/mL (≈ 7.57 µM); MIC ([6]; Escherichia coli, IAM1264): > 50 µg/mL; MIC ([7]; Candida albicans, ATCC10231): > 50 µg/mL; MIC ([8]; Candida tropicalis, ATCC13803): > 50 µg/mL

Reference: US4401812A, “Anthracycline antibiotics” (Hoffmann-La Roche Inc., priority 1980, dated 1983)
